Experimental data: patent publication EP0946579B1, “NOVEL ERYTHROMYCIN DERIVATIVES, METHOD FOR PREPARING THEM AND THEIR USE AS MEDICINE” (Aventis Pharma S.A., priority 1996, dated 1998)
Values after ≈ are worked out from the molar mass of the structure shown.

Legend:
Type in all cases: cell-based
[1] = tested on: Staphylococcus aureus 011G025I; assay: Dilution method in liquid medium (MIC); conditions: incubation 24 h at 37°C, read-out: concentrations minimales inhibitrices (C.M.I.)
Procedure: (§1) Méthode des dilutions en milieu liquide
(§2) On a préparé une série de tubes dans lesquels on répartit une même quantité de milieu nutritif stérile. On distribue dans chaque tube des quantités croissantes du produit à étudier, puis chaque tube est ensemencé avec une souche bactérienne. Après incubation de vingt-quatre heures à l'étuve à 37°C, l'inhibition de la croissance est appréciée par transillumination de ce qui permet de déterminer les concentrations minimales inhibitrices (C.M.I.) exprimées en microgrammes/cm^3.

[2] = tested on: Staphylococcus aureus 011UC4; assay: Dilution method in liquid medium (MIC); conditions: incubation 24 h at 37°C, read-out: concentrations minimales inhibitrices (C.M.I.)
Procedure: as §1, §2

[3] = tested on: Staphylococcus epidermidis 012GO11I; assay: Dilution method in liquid medium (MIC); conditions: incubation 24 h at 37°C, read-out: concentrations minimales inhibitrices (C.M.I.)
Procedure: as §1, §2

[4] = tested on: Streptococcus agalactiae groupe B 02B1HT1; assay: Dilution method in liquid medium (MIC); conditions: incubation 24 h at 37°C, read-out: concentrations minimales inhibitrices (C.M.I.)
Procedure: as §1, §2

[5] = tested on: Streptococcus agalactiae groupe B 02B1SJ1; assay: Dilution method in liquid medium (MIC); conditions: incubation 24 h at 37°C, read-out: concentrations minimales inhibitrices (C.M.I.)
Procedure: as §1, §2

[6] = tested on: Streptococcus faecalis groupe D 02D2UC1; assay: Dilution method in liquid medium (MIC); conditions: Enterococcus faecalis, incubation 24 h at 37°C, read-out: concentrations minimales inhibitrices (C.M.I.)
Procedure: as §1, §2

[7] = tested on: Streptococcus faecium groupe D 02D3HT1; assay: Dilution method in liquid medium (MIC); conditions: Enterococcus faecium, incubation 24 h at 37°C, read-out: concentrations minimales inhibitrices (C.M.I.)
Procedure: as §1, §2

[8] = tested on: Streptococcus mitis 02mitCB1; assay: Dilution method in liquid medium (MIC); conditions: incubation 24 h at 37°C, read-out: concentrations minimales inhibitrices (C.M.I.)
Procedure: as §1, §2

[9] = tested on: Streptococcus mitis 02mitGR16I; assay: Dilution method in liquid medium (MIC); conditions: incubation 24 h at 37°C, read-out: concentrations minimales inhibitrices (C.M.I.)
Procedure: as §1, §2

[10] = tested on: Streptococcus pneumoniae 032UC1; assay: Dilution method in liquid medium (MIC); conditions: incubation 24 h at 37°C, read-out: concentrations minimales inhibitrices (C.M.I.)
Procedure: as §1, §2

[11] = tested on: Streptococcus pyogenes groupe A 02A1UC1; assay: Dilution method in liquid medium (MIC); conditions: incubation 24 h at 37°C, read-out: concentrations minimales inhibitrices (C.M.I.)
Procedure: as §1, §2

[12] = tested on: Streptococcus sp groupe G 02G0GR5; assay: Dilution method in liquid medium (MIC); conditions: incubation 24 h at 37°C, read-out: concentrations minimales inhibitrices (C.M.I.)
Procedure: as §1, §2

[13] = tested on: Haemophilus Influenzae 351CA1; assay: Antibacterial activity on gram-negative strains; conditions: result in words
Procedure: as §2

[14] = tested on: Haemophilus Influenzae 351CB12; assay: Antibacterial activity on gram-negative strains; conditions: result in words
Procedure: as §2

[15] = tested on: Haemophilus Influenzae 351GR6; assay: Antibacterial activity on gram-negative strains; conditions: result in words
Procedure: as §2

[16] = tested on: Haemophilus Influenzae 351HT3; assay: Antibacterial activity on gram-negative strains; conditions: result in words
Procedure: as §2

Q: What does the source list for `CC[C@H]1OC(=O)[C@H](C)C(=O)[C@H](C)[C@@H](O[C@@H]2O[C@H](C)C[C@H](N(C)C)[C@H]2O)[C@](C)(OC)C[C@@H](C)C(=O)[C@H](C)[C@H]2N(COCCc3ccccc3)C(=O)O[C@]12C` [Ex. 3, 11,12-didéoxy-3-de[(2,6-didéoxy-3-C-méthyl-3-O-méthyl-alpha-L-ribo-hexopyranosyl)oxy]-6-O-méthyl-3-oxo-12,11-[oxycarbonyl[[(2-phényléthoxy)méthyl]imino]]-érythromycine]?
A: MIC [1]: 0.15 µg/mL (≈ 0.201 µM); MIC [2]: 0.04 µg/mL (≈ 0.0536 µM); MIC [3]: 0.08 µg/mL (≈ 0.107 µM); MIC [4]: ≤ 0.02 µg/mL; MIC [5]: 0.04 µg/mL (≈ 0.0536 µM); MIC [6]: ≤ 0.04 µg/mL; MIC [7]: ≤ 0.02 µg/mL; MIC [8]: ≤ 0.02 µg/mL; MIC [9]: ≤ 0.02 µg/mL; MIC [10]: ≤ 0.02 µg/mL; MIC [11]: ≤ 0.02 µg/mL; MIC [12]: ≤ 0.02 µg/mL

Q: What does the source list for `CC[C@H]1OC(=O)[C@H](C)C(=O)[C@H](C)[C@@H](O[C@@H]2O[C@H](C)C[C@H](N(C)C)[C@H]2O)[C@](C)(OC)C[C@@H](C)C(=O)[C@H](C)[C@H]2N(COCCn3cnc(-c4cccnc4)c3)C(=O)O[C@]12C` [Ex. 2]?
A: MIC [1]: 0.08 µg/mL (≈ 0.0983 µM); MIC [2]: 0.08 µg/mL (≈ 0.0983 µM); MIC [3]: 0.08 µg/mL (≈ 0.0983 µM); MIC [4]: ≤ 0.02 µg/mL; MIC [5]: 0.08 µg/mL (≈ 0.0983 µM); MIC [6]: ≤ 0.02 µg/mL; MIC [7]: ≤ 0.02 µg/mL; MIC [8]: ≤ 0.02 µg/mL; MIC [9]: ≤ 0.02 µg/mL; MIC [10]: 0.02 µg/mL (≈ 0.0246 µM); MIC [11]: ≤ 0.02 µg/mL; MIC [12]: ≤ 0.02 µg/mL

Q: Which “activité sur les souches bactériennes à gram⊖” value [13] does the source give for `CC[C@H]1OC(=O)[C@H](C)C(=O)[C@H](C)[C@@H](O[C@@H]2O[C@H](C)C[C@H](N(C)C)[C@H]2O)[C@](C)(OC)C[C@@H](C)C(=O)[C@H](C)[C@H]2N(COCCOC)C(=O)O[C@]12C` [exemple 1, 11,12-didéoxy-3-de[(2,6-didéoxy-3-C-méthyl-3-O-méthyl-alpha-L-ribo-hexopyranosyl)oxy]-6-O-méthyl-3-oxo-12,11-[oxycarbonyl[[(2-méthoxyéthoxy)méthyl]imino]]-érythromycine] here?
A: activité intéressante

Q: What about the “activité sur les souches bactériennes à gram⊖” value [14] of the same compound?
A: activité intéressante

Q: And the “activité sur les souches bactériennes à gram⊖” value [15]?
A: activité intéressante

Q: What about the “activité sur les souches bactériennes à gram⊖” value [16] of the same compound?
A: activité intéressante
